Results taken from PMC3951423, “Structural Bases of Norovirus RNA Dependent RNA Polymerase Inhibition by Novel Suramin-Related Compounds” (PLoS ONE, 2014).
≈ marks a conversion by molar mass, not a printed value. Where “and” joins values, the source holds several entries; their conditions need not be identical. Equal entries are not always repeated. Structures can show the parent of a compound that is named as a salt.

Key:
[1] = Water solubility (Bookser's method); assay type: physicochemical; details: thermodynamic from solid, deionized water, saturated solution
Excerpt: (§1) Bookser's method was applied to obtain the water solubility of sodium organosulphonates 3–8 and Suramin (9) by use of HPLC with a UV detector (see Table 1). Furthermore, the “shake–flask method” [28] was applied to obtain their hydrophobicity by use of n-octanol and water. The apparent partition coefficient (P) shown in Table 1 is the ratio of the concentration in n-octanol to the total concentration (i.e., ionized plus non-ionized) of the species in the aqueous phase, [29].
A stock solution was prepared by dissolving a precisely weighed amount of Suramin derivatives in deionized water (1.0 ml). The UV absorption maximum of each compound was measured by dilution of the solution with deionized water as necessary. A saturated solution of each compound was then prepared by use of deionized water (1.0 ml) in the presence of an excess of Suramin derivatives for 1.0 hour. The obtained saturated solution was filtered to remove solid compound through a Millipore filter (0.45 μm) and was scanned by UV spectroscopy at the wavelength of the absorption maximum previously determined.

hNV-RdRp [2] = biological target: T1, hNV-RdRp (Norovirus GII (human norovirus; Norwalk-like virus), UniProt A0ZNP5); test: In-vitro RdRp inhibition assay (PicoGreen fluorescence, poly(C)/oligoG12); assay type: biochemical; details: poly(C) template, G12 primer, GTP 100 μM; read-out: IC50 hNVRdRp
Protocol: (§2) hNV and mNV-RdRp inhibition assays were performed monitoring the impairment of RNA synthesis as a function of inhibitor concentration, as previously described. Briefly, RdRp activity was assessed in vitro (measuring PicoGreen fluorescence) following the synthesis of double-stranded RNA from a single-stranded RNA poly(C) template annealed with a G12 primer. The assay can easily be adapted for any viral RNA polymerase.
(§3) RdRp assays were performed as previously described. In brief poly(C) (MP Biomedicals) was used as template annealed with oligoG12 as primer (62.5 nM final concentration) and GTP (100 μM final concentration) as substrate, in a 200 μl reaction mixture containing 20 mM Tris/HCl pH 7.5, 25 mM NaCl, 5 mM MgCl2, 0.3 mM MnCl2, 1 mM DTT, PicoGreen Quantitation Reagent (Molecular Probes) diluted 1/200 20 U ml−1 RiboLock Ribonuclease Inhibitor (Fermentas). Reactions were started by the addition of GTP following the fluorescence of samples in a fluorescence reader (Varian, Cary Eclipse Fluorescence Spectrophotometer).

mNV-RdRp [3] = biological target: T2, mNV-RdRp (Norovirus, UniProt Q80J95); test: as above; assay type: biochemical; details: poly(C) template, G12 primer, GTP 100 μM; read-out: IC50 mNVRdRp
T2 construct: Solutions of 4 μl of the NV-RdRp domain (final hNV-RdRp concentration 7 μM, final mNV-RdRp concentration 1.6 μM); made in house
Protocol: as §2, §3

[4] = n-Octanol/water partition coefficient (shake-flask method); assay type: physicochemical; details: n-octanol / pH 7.4 phosphate buffer, 25 °C, average of three experiments, read-out: hydrophobicity log P
Excerpt: as §1
The n-octanol/water partition coefficient of Suramin derivatives was determined by the shake-flask method. n-Octanol and pH 7.4 phosphate buffer were mutually saturated for 4.0 hours, and the phases were separated. A stock solution of each Suramin derivative was prepared using pH 7.4 phosphate buffer solution. Suramin derivatives were partitioned between n-octanol and pH 7.4 phosphate buffer. Then the phase mixtures were shaken for 1 hour at constant 25 °C. After separation, the absorbance of the phosphate buffer solutions (pH 7.4) was measured by UV spectrophotometry. Three replicates were performed for each compound. The P value corresponded to the quotient between n-octanol and buffer concentrations of the drug. The log P values were an average of three independent experiments.

hNV-RdRp [5] = biological target: T1, hNV-RdRp; test: Thermofluorimetric (thermal shift) assay; assay type: binding; details: inhibitor 4 μM, hNV-RdRp 7 μM, Sypro Orange; free enzyme Tm 41.5
Protocol: (§4) In order to exclude that 8 and 6 inhibition might be linked to some form of RdRp destabilization/aggregation/denaturation, a process generally reflected by a variation of the protein melting temperature (Tm), we performed thermofluorimetric assays on free and inhibited NV-RdRps.
(§5) Thermofluorimetric (Thermal shift) assays for the evaluation of the hNV-RdRp melting temperature (Tm) in the absence/presence of the inhibitors, were conducted in a MiniOpticon Real Time PCR Detection System (Bio-Rad), using the fluorescent dye Sypro Orange. Solutions of 4 μl of the NV-RdRp domain (final hNV-RdRp concentration 7 μM, final mNV-RdRp concentration 1.6 μM) were diluted in 9.5 μl of its buffer, and mixed with 3.5 μl of Sypro orange (Sigma) diluted 60×, and 1 μl of 6 or 8 (4 μM final concentration). In control samples the inhibitors were replaced by water. The sample plates were heated from 20 to 90°C with a heating rate of 0.2 °C/min. Fluorescence intensities were measured within excitation/emission ranges of 470–505 nm and 540–700 nm, respectively.

mNV-RdRp [6] = biological target: T2, mNV-RdRp; test: Thermofluorimetric (thermal shift) assay; assay type: binding; details: inhibitor 4 μM, mNV-RdRp 1.6 μM, Sypro Orange; free enzyme Tm 39.6 ±0.2
Protocol: as §4, §5

[7] = Solubility in organic solvents (observation during synthesis); assay type: physicochemical; details: most organic solvents, including THF and DMSO
NV-RdRp = test system: NV-RdRp; set-up: method as in earlier work; details: ref 34 (Tarantino et al., in press); cited from earlier work
[8] = statement in the Introduction, no reference given; cited from earlier work

solubility at 1 h [1] [mg/mL] | IC50 (hNV-RdRp [2]) [µM] | IC50 (mNV-RdRp [3]) | logP at 1 h [4] | hNV-RdRp Tm in the presence of inhibitor (hNV-RdRp [5]) [°C] | mNV-RdRp Tm in the presence of inhibitor (mNV-RdRp [6]) [°C] | Solubility in organic solvents [7] | SMILES | inhibitory potency against NV-RdRp (NV-RdRp) | log P [8]
260 | 1.28 ± 0.07 | 0.2 ± 0.01 µM | -2.19 | – | – | – | Cc1ccc(C(=O)Nc2ccc(S(=O)(=O)O)c3cccc(S(=O)(=O)O)c23)cc1[N+](=O)[O-] [Compound 3, 4-(4-Methyl-3-nitrobenzamido)naphthalene-1,5-disulphonate Acid Disodium Salt] | – | –
339 | 1.1 ± 0.2 | 0.16 ± 0.007 µM | -2.33 | – | – | – | Cc1ccc(C(=O)Nc2ccc(S(=O)(=O)O)c3cccc(S(=O)(=O)O)c23)cc1N [Compound 4, 4-(3-Amino-4-methylbenzamido)naphthalene-1,5-disulphonate Acid Disodium Salt] | – | –
179 | 1 ± 0.09 | 0.115 ± 0.015 µM | -1.64 | 41.2±0.2 | 39.4±0.3 | – | Cc1ccc(C(=O)Nc2ccc(S(=O)(=O)O)c3cccc(S(=O)(=O)O)c23)cc1NC(=O)c1cccc([N+](=O)[O-])c1 [Compound 6, 4-[4-Methyl-3-(3-nitrobenzamido)benzamido]naphthalene-1,5-disulsulphonate Acid Disodium Salt] | – | –
249 | 1.1 ± 0.05 | 0.16 ± 0.006 µM | -2.11 | – | – | very poor | Cc1ccc(C(=O)Nc2ccc(S(=O)(=O)O)c3cccc(S(=O)(=O)O)c23)cc1NC(=O)c1cccc(N)c1 [Compound 7, 4-[3-(3-Aminobenzamido)-4-methylbenzamido]naphthalene-1,5-disulphonate Acid Disodium Salt] | – | –
114 | 0.028 ± 0.004 | ~0.06 µM and 0.06 µM | -1.61 | 41.4 | 39.8 ±0.2 | – | Cc1ccc(C(=O)Nc2ccc(S(=O)(=O)O)c3cccc(S(=O)(=O)O)c23)cc1NC(=O)c1cccc(NC(=O)Nc2cccc(C(=O)Nc3cc(C(=O)Nc4ccc(S(=O)(=O)O)c5cccc(S(=O)(=O)O)c45)ccc3C)c2)c1 [Compound 8, 4-4′-(Carbonylbis[imino-3,1-phenylenecarbonylimino(4-methyl-3,1-phenylene)carbonylimino])bis-1,5-naphthalenedisulphonate Acid Tetrasodium Salt] | – | –
– | – | – | – | – | – | – | Cc1nc(N=Nc2cc(S(=O)(=O)O)c3cc([N+](=O)[O-])cc(S(=O)(=O)O)c3c2)c(COP(=O)(O)O)c(C=O)c1O [PPNDS] | low nM | –
138 (≈ 106 mM) | 0.027 ± 0.003 | 0.07 ± 0.003 µM | -3.42 | – | – | – | Cc1ccc(C(=O)Nc2ccc(S(=O)(=O)O)c3cc(S(=O)(=O)O)cc(S(=O)(=O)O)c23)cc1NC(=O)c1cccc(NC(=O)Nc2cccc(C(=O)Nc3cc(C(=O)Nc4ccc(S(=O)(=O)O)c5cc(S(=O)(=O)O)cc(S(=O)(=O)O)c45)ccc3C)c2)c1 [Suramin (9), Suramin] | – | lower than 0
